Source: patent publication US20070009571A1, “Novel haptotactic peptides” (Hadasit Medical Research Services & Development Ltd., priority 1998, published 2007)
“Also recorded” adds a separate entry of the source. Like-named read-outs stand apart in the source and are kept apart here. Marks after values point to notes of the source that are not given here. No end group written: not given here.

Assays:
BAEC = assay: Chemotaxis, micro-Boyden chamber assay; assay type: cell-based, bovine
Protocol: Chemotaxis was evaluated using 48-well plastic Microtaxis micro-Boyden chambers. Polycarbonate filters with pore size of 8 μm were coated with fibronectin for 2 hours at 37° C. Conditioned medium from 3T3 cells served as a positive control. Test solution (26 μl) containing the tested peptides or protein or medium with no additions that served as control were placed in the lower chamber, covered with the filter. 50 μl cell suspension was introduced to the upper chamber of each well. The number of cells/well varied in the range of 5,000-10,000 in different experiments. The device loaded with cells was incubated at 37° C. for 4-5 hours. The filter was then removed and the non-migrating cells on its upper part were carefully wiped off with a damp cotton swab. The filter was fixed in methanol and stained with Accustain (modified Wright stain solution Sigma Diagnostics: St. Lois, Mo.). Cells that crossed or were retained within the filter were counted microscopically at low magnification so that the viewing field corresponded to the whole area of each well. Each experimental variant was performed in duplicated or triplicates and the data from, three successful experiments were normalized to the values of the positive control and averaged.
The chemotactic response of BAEC to a soluble gradient of […], the most haptotactic of the peptides studied was as follows. The results can be seen in FIG. 6. […] A similar, though more moderate, chemotaxis response to Cβ (SEQ ID NO:1) was obtained with HF.

tested cell lines = assay: Haptotaxis assay, statements over the tested cell lines; assay type: cell-based; details: ligands covalently bound to SB; for haptotactic response / cell binding to SB-ligand, in words: near confluent cell cultures
Protocol: (§1) Peptides or fibrinogen were covalently bound to CNBr activated sepharose beads (SB) (Pharmacia, Piscataway, N.J.) using techniques previously used to bind albumin, fibrinogen and thrombin. Briefly, CNBr-activated sepharose 4B (Pharmacia) was washed with 1N HCl, and suspended in the coupling buffer (pH 8.3), following the protocol supplied by the manufacturer. The peptides were dialyzed against the coupling buffer to remove Tris. Peptides (1 mg) were not highly water soluble. The peptides were dissolved in 1 mL 70% ethanol or dimethylformamide, and were then mixed into the coupling buffer containing 1 mL CNBr-activated sepharose. The suspension was gently agitated overnight, then centrifuged 500×g to pack the beads. This procedure covalently binds more than 95% of proteins or peptides including fibrinogen or peptides-CαE (SEQ ID NO:3), Cβ (SEQ ID NO:1) and preCγ (SEQ ID NO:2) to the beads determined by Abs280 readings of the solutions.
(§2) The migratory/adhesion response of cells to proteins (such as fibrinogen) or peptides covalently bound to SB was measured as follows. Cells were grown in 6 or 12 well plates to near confluence or in suspension until they covered about ½ to ⅔ of the plate surface. At that point, about […] of a suspension containing 50% v/v SB coated with the test protein or peptide were added to the plate and dispersed by gentle shaking for 1 min. The plate was then returned to the incubator and examined at different times by inverted phase microscopy.
(§3) The SB (naked or ligand bound) sedimented onto the nearly confluent cell layer and occasionally made physical contact with cell membranes on the plate (ascribed to Brownian motion or micro-convection currents). […] Typically, 300 beads (but not less then 200) were counted in each well and the ratio of SB bound to the cells relative to total number SB could be calculated (SB bound/SB total). Counting the percentage of SB attached to the cell surface at different time intervals provided a quantitative assay of the kinetics of the attachment of coated beads to cells. Negative control with uncoated SB or positive controls with SB-fibrinogen were employed with at least 3 wells measured for each. The statistical error was calculated from the square root of the total counts.
(§4) The peptides of the present invention were synthesized and tested in cell culture systems as described above. Essentially, peptides were covalently attached to sepharose beads to form SB-Cα (SEQ ID NO:4), SB-Cβ (SEQ ID NO:1), SB-PreCγ (SEQ ID NO:2), SB-Cγ (SEQ ID NO:5) and SB-CαE (SEQ ID NO:3), respectively, as was fibrinogen to form SB-Fib. The SB-peptide combination was then incubated with cultured cells. […] The haptotactic potency of the peptides is summarized in Table 3 with the percentage of SB-Fib/peptide attached to cells (by day 4) given in columns 2-5 of Table 3.

EC cells (BAEC) = assay: FACS analysis of binding of FITC-labeled peptides; assay type: cell-based, bovine; details: 10 μg/ml or 100 μg/ml, medium with 0.1% albumin
Protocol: EC and HF cell monolayers were washed and then incubated with trypsin-versene. Cells were then washed with growth medium and resuspended in medium with 0.1% albumin. FITC-labeled peptide-Cβ (SEQ ID NO:1) was incubated with 5×10^5 EC cells (10 μg/ml or 100 μg/ml) or with 2.5×10^5 HF cells (100 μg/ml) in medium with 0.1% albumin. FITC-labeled peptide-CαE (SEQ ID NO:3) and Cα (SEQ ID NO:4) (10 μg/ml) was incubated with 5×10^5 EC cells in medium with 0.1% albumin. Cells were then washed with PBS and 1% albumin. Cells were resuspended in PBS and 1% albumin and then filtered through a mesh for FACS analysis, in which the FITC tluorescence was measured for each cell.
The control is without FITC-labeled peptide (background fluorescence).
In competition experiments, cells were incubated with various concentrations of unlabeled Cβ (SEQ ID NO:1) for 15 mins, an aliquot of Cβ^FITC (4 mM) was added and the sample was subjected to FACS analysis. […] The Cβ^FITC (SEQ ID NO:1) uptake experiments best fitted a linear-quadratic curve-fit.

HF = assay: Cell proliferation, MTS assay; assay type: cell-based, human; details: 0.4 nM-4 μM, 96 well plates
Protocol: Cell proliferation was evaluated by measuring cell density as a function of time by two different colorimetric assays. The MTS colorimetric assay (CellTitre 96 Aqueous Assay by Promega) is based on dehydrogenase conversion of MTS (methyl tetrazolium salt) by viable cells to […] (Ge M. Tang, G., Ryan. T. J. and Malik. A. B., “Fibrinogen degradation product fragment D induces endothelial cell detachment by activation of cell-mediated fibrinolysis”, J. Clin. Inves., 90:2508-2516 (1992)); the methylene blue (MB) assay is based on the staining of monolayer cells after their fixation, and reading the absorbence of the absorbed dye.
The MTS assay for viable cells was performed as follows: 30 μL of freshly prepared MTS/PMS were added to each well; following 2 hrs incubation at 37° C., the plates were placed on a computer driven microplate reader (Anthos HT-II, Salzburg, Austria), programmed to shake the plate for 1 minute before reading the optical density (OD) of the dye at 490 nm. The measurements were repeated following 4 and 6 hours of incubation.
Peptides (Cα (SEQ ID NO:4), […], PreCγ (SEQ ID NO:2) and CαE (SEQ ID NO:3)), up to 1 μg/mL or 100 μg/mL fibrinogen or thrombin (final concentrations) were added to the culture medium and cell numbers were assayed by day 3 using the MTS assay. The change in cell number was compared with that observed versus saline control. Of the 5 peptides tested at dosages up to 10 μg/mL (approximately equimolar to 1 μg/mL fibrinogen), none of the peptides exerted significant effect on cell proliferation (FIG. 7).

[1] = tested on: bovine aortic endothelial cells (EC, BAEC); assay: Haptotaxis assay: attachment of ligand-coated SB to cultured cells; assay type: cell-based; details: for % Binding of peptide-coated SB to normal cultured cells: percentage of SB-ligand attached to cells by day 4
Protocol: as §1, §2, §3, §4

[2] = tested on: normal human skin fibroblasts (HF); assay: Haptotaxis assay: attachment of ligand-coated sepharose beads (SB) to cultured cells; assay type: cell-based; details: for % Binding of peptide-coated SB to normal cultured cells: percentage of SB-ligand attached to cells by day 4
Protocol: as §1, §2, §3, §4

[3] = tested on: human ovarian carcinoma cells (OV-1063); assay: Haptotaxis assay: attachment of ligand-coated SB to cultured cells; assay type: cell-based; details: percentage of SB-ligand attached to cells by day 4
Protocol: as §1, §2, §3, §4

[4] = tested on: porcine smooth muscle cells (SMC); assay: as above; assay type: cell-based; details: for % Binding of peptide-coated SB to normal cultured cells: percentage of SB-ligand attached to cells by day 4
Protocol: as §1, §2, §3, §4

[5] = tested on: normal human keratinocytes; assay: as above; assay type: cell-based; details: Keratinocyte; percentage of SB-ligand attached to cells by day 4
Protocol: as §1, §2, §3, §4

[6] = tested on: normal murine fibroblasts (MF); assay: as above; assay type: cell-based; details: percentage of SB-ligand attached to cells by day 4
Protocol: as §1, §2, §3, §4

[7] = tested on: murine mammary adenocarcinoma cells (EMT-6); assay: as above; assay type: cell-based; details: percentage of SB-ligand attached to cells by day 4
Protocol: as §1, §2, §3, §4

For “EADHEGTHSTKRGHAKSRP (Equivalent to the c-terminus of fibrinogen alpha-chain) [Cα, reference compound]”, the “chemotactic response of BAEC, in words” value (BAEC; soluble gradient, up to 40 μg/ml, conditioned medium = 100% chemotaxis) was “elicited no response”, the “haptotactic response / cell binding to SB-ligand, in words” value (shortened to “haptotactic response / cell binding”) (tested cell lines) was “inactive” and the “haptotactic response / cell binding” value (tested cell lines; listed as peptide-Cα) was “no cell adhesive effects”. For the same substance, the “binding/uptake of FITC-labeled peptide by FACS, in words” value (shortened to “binding/uptake of FITC-labeled peptide”) (EC cells (BAEC)) was “did not bind” and the “proliferative response of HF (MTS proliferation assay)” value (“proliferative response of HF” below) (HF) was “none of these peptides stimulated or inhibited proliferation”.

“FITC-labeled peptide Cα: FITC-labeled peptide Cα (SEQ ID NO:4), negative control (EADHEGTHSTKRGHAKSRP; not fully specified (N-terminus); also: FITC label, position not given here) [reference compound]” was tested, and the “binding/uptake of FITC-labeled peptide” value (EC cells (BAEC)) was “bound only slightly (non-specifically)”.

For “FITC-labeled peptide Cγ: FITC-labeled peptide Cγ (SEQ ID NO:5) (LTIGEGQQHHLGGAKQAGDV; not fully specified (N-terminus); also: FITC label, position not given here) [reference compound]”, the “binding/uptake of FITC-labeled peptide” value (EC cells (BAEC)) was “bound only slightly (non-specifically)”.

“KTRWYSMKKTTMKIIPFNRL (Equivalent to an internal sequence of fibrinogen gamma-chain) [PreCγ]” was tested, and the “chemotaxis, in words” value (BAEC; concentrations of up to 40 μM) was “significant chemotaxis”, the “haptotactic response / cell binding” value (tested cell lines) was “significant haptotactic responses” and the “haptotactic response / cell binding” value (tested cell lines; listed as preCγ) was “highly haptotactic; also recorded: most potent”. The “proliferative response of HF” value (HF) was “none of these peptides stimulated or inhibited proliferation” and the “cell binding / haptotactic response to SB-ligand, in words” value (“cell binding / haptotactic response” for short) [1] was “greatest haptotactic response”.

“LTIGEGQQHHLGGAKQAGDV (Equivalent to the c-terminus of fibrinogen gamma-chain) [Cγ, control peptide homologous to the C-terminus of the fibrinogen γ chain, γ 392-411, reference compound]” was tested, and the “haptotactic response / cell binding” value (tested cell lines) was “minor negligible activity”, the “proliferative response of HF” value (HF) was “none of these peptides stimulated or inhibited proliferation” and the “cell binding / haptotactic response” value [1] was “only negligible effect”. The “cell binding / haptotactic response” value ([1]; listed as peptide Cγ) was “bound variably”.

With “RGADYSLRAVRMKIRPLVTQ (Equivalent to the c-erminus of fibrinogen alpha-E-chain) [CαE, haptotactic peptide homologous to the C-terminus of the fibrinogen αE chain, αE 828-847]” the “haptotactic response / cell binding” value (tested cell lines) was “to a lesser degree; also recorded: significant haptotactic responses” and the “proliferative response of HF” value (HF) was “none of these peptides stimulated or inhibited proliferation”.

In the case of “SB-Cα: peptide-Cα (SEQ ID NO:4) covalently attached to sepharose beads (EADHEGTHSTKRGHAKSRP; also: attached to sepharose beads) [reference compound]”, the “% Binding of peptide-coated SB to normal cultured cells” value (from here on “% Binding of peptide-coated SB”) [2] is reported as 0%, the “number of cell lines bound by SB-ligand out of 7 tested” value (tested cell lines) is reported as “none” and the “haptotactic response / cell binding” value (tested cell lines) is reported as “No cell binding”. For the same substance, the “% Binding of peptide-coated SB” value [3] was 0%, the “% Binding of peptide-coated SB” value [4] was 0% and the “% Binding of peptide-coated SB” value [5] was 0%. The “% Binding of peptide-coated SB” value [6] was 0%, the “% Binding of peptide-coated SB” value [7] was 1% and the “% Binding of peptide-coated SB” value [1] was 0%.

In the case of “SB-Cγ: peptide Cγ (SEQ ID NO:5) covalently attached to sepharose beads (LTIGEGQQHHLGGAKQAGDV; also: attached to sepharose beads) [reference compound]”, the “% Binding of peptide-coated SB” value [2] is reported as 2%, the “% Binding of peptide-coated SB” value [3] is reported as 0% and the “% Binding of peptide-coated SB” value [4] is reported as 1%. The “% Binding of peptide-coated SB” value [6] was 0%, the “% Binding of peptide-coated SB” value [7] was 2% and the “cell binding / haptotactic response” value [1] was “Variable haptotaxis”. For the same substance, the “% Binding of peptide-coated SB” value [1] was 2 to 93* %.

“SB-PreCγ: peptide preCγ (SEQ ID NO:2) covalently attached to sepharose beads (KTRWYSMKKTTMKIIPFNRL; also: attached to sepharose beads)” was tested, and the “cell binding to SB-ligand, in words” value [2] was “bound”, the “% Binding of peptide-coated SB” value [2] was 100% and the “cell lines excepted from binding to SB-ligand (all other tested lines bound)” value (tested cell lines) was “with the exception of OV-1063, keratinocytes and cells derived from a leucocytic lineage”. The “cell binding to SB-ligand, in words” value [4] was “bound”, the “% Binding of peptide-coated SB” value [4] was 98% and the “cell binding / haptotactic response” value [1] was “bound”. The “% Binding of peptide-coated SB” value [1] was 100%.
